Results reported in patent US10253035B2 (priority 2016, dated 2019).
Entries after “also recorded” stand apart in the source; their conditions may differ. Like-named read-outs stand apart in the source and are kept apart here.

Legend:
[1] = system: Mtb H37Rv; format: cell-based
[2] = system: A549, HEK-293, and J774A.1 cells; conditions: KAN alone at sub-IC50 concentrations (FIG. 9)
[3] = molecular target: T1, Eis_Mtb (Mycobacterium tuberculosis, UniProt P9WFK7); assay: biochemical; format: biochemical
[4] = molecular target: T1, Eis_Mtb; format: biochemical
[5] = molecular target: AAC(2′)-Ic (Mycobacterium tuberculosis, UniProt P9WQG9); assay: biochemical; parameters: species or system Mtb
[6] = molecular target: AAC(6′)-Ie/APH(2″)-Ia (Staphylococcus aureus, UniProt P0A0C1); assay: Selectivity: KAN acetylation by AAC(6′)-Ie/APH(2″)-Ia; format: biochemical
[7] = system: AAC(3)-IV; assay: Selectivity: KAN acetylation by AAC(3)-IV; format: biochemical, E. coli; conditions: for inhibition of KAN acetylation by AAC(3)-IV (in words): concentrations as high as 200 μM
[8] = KAN MIC for H37Rv Mtb in the presence of compound at the specified concentration, Example 4
[9] = activity of KAN against Mtb H37Rv with compound at concentration tested (100x IC50 or 100 μM), Example 1, two experiments
[10] = concentrations as high as 200 μM

Sequence of AAC(6′)-Ie/APH(2″)-Ia (P0A0C1 whole entry): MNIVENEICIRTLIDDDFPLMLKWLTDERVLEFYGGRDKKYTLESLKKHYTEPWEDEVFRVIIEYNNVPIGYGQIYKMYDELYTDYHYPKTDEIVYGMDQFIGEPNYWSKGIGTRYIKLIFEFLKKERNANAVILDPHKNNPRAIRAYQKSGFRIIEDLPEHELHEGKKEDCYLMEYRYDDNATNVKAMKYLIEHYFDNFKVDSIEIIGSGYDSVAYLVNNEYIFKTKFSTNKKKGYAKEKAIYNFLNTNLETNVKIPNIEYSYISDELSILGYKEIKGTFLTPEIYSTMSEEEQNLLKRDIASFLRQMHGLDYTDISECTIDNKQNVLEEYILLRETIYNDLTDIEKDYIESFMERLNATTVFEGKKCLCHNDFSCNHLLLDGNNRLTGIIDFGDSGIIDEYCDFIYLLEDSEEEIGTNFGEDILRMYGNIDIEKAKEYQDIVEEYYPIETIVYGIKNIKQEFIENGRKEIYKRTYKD
T1 sequence (P9WFK7 2-402 limits assumed): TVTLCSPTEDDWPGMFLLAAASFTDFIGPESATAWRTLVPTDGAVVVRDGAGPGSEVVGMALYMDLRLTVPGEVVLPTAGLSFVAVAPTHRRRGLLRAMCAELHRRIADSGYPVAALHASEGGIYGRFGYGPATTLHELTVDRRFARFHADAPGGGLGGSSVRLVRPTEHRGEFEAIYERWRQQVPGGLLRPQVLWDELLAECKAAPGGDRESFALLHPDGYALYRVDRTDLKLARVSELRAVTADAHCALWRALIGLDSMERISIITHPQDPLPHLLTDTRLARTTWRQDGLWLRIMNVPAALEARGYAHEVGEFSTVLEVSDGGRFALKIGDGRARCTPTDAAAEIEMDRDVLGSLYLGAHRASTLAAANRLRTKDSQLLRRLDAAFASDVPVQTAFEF
Sequence of AAC(2′)-Ic (P9WQG9 whole entry): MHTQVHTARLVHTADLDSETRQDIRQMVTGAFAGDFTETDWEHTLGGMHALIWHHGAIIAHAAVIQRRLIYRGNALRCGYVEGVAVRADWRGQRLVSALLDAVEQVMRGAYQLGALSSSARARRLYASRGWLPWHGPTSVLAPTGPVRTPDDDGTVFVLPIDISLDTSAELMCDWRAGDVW

CC1=C(c2ccccc2)S(=O)(=O)N=C1NCCN1CCCCC1 [Compound 33a]
H37Rv MICKAN [1, 8]: 0.625 µg/mL

CC1=C(c2ccc(F)cc2)S(=O)(=O)N=C1NCc1ccccc1 [Compound 89b]
H37Rv MICKAN [1, 8]: 1.25 µg/mL

CC1=C(c2ccc(C)c(C)c2)S(=O)(=O)N=C1NCCN1CCOCC1 [Compound 35i]
H37Rv MICKAN [1, 8]: 0.625 µg/mL

CC1=C(c2cccc(Br)c2)S(=O)(=O)N=C1NCCN1CCOCC1 [Compound 35h]
H37Rv MICKAN [1, 8]: 0.625 µg/mL

NC[C@H]1O[C@H](O[C@H]2[C@H](O)[C@@H](O[C@H]3O[C@H](CO)[C@@H](O)[C@H](N)[C@H]3O)[C@H](N)C[C@@H]2N)[C@H](O)[C@@H](O)[C@@H]1O [KAN, kanamycin A]
effect on cell growth (in words) [2]: promotes cell growth

COc1ccc(C2=C(C)C(NCCN3CCN(C)CC3)=NS2(=O)=O)cc1 [Compound 36d]
H37Rv MICKAN [1, 8]: 0.625 µg/mL

CCC(=O)Cn1c(C(=O)OC)cc2occc21 [Compound 1l]
IC50 [3]: > 200000 nM

CC1=C(c2ccc(C)cc2)S(=O)(=O)N=C1NCCN1CCOCC1 [Compound 35e]
H37Rv MICKAN [1, 8]: 0.625 µg/mL

CCN(CC)CCCNC1=NS(=O)(=O)C(c2ccc(C)c(C)c2)=C1C [Compound 3i]
H37Rv MICKAN [1, 8]: 0.625 µg/mL

COc1cc(N(C)S(=O)(=O)c2ccc3[nH]c(=O)c(=O)[nH]c3c2)cc2ccccc12 [Compound 47]
inhibition of purified Eis (in words) ([3]; dose-response assay): loss of Eis inhibition

O=c1[nH]c2ccc(S(=O)(=O)Nc3ccc(Cl)c(C(F)(F)F)c3)cc2[nH]c1=O [Compound 3]
Eis inhibition in the HTS (in words) [4]: modest Eis inhibition

CC1=C(c2ccc(F)cc2)S(=O)(=O)N=C1NCCCN1CCCCC1 [Compound 6b]
H37Rv MICKAN [1, 8]: 0.625 µg/mL

COC(=O)c1cc2occc2n1CC(=O)C(C)(C)C [Compound 1m]
H37Rv MICKAN [1, 9]: ≤1.25 µg/mL | IC50 ([3]; read-out: IC50): > 200000 nM

COC(=O)c1cc2occc2n1CC(=O)c1cccc(OC)c1 [if]
IC50 [3]: > 200000 nM

CCN1CCN(CCCNC2=NS(=O)(=O)C(c3ccc(C)cc3)=C2C)CC1 [Compound 15e]
H37Rv MICKAN [1, 8]: 0.625 to 1.25 µg/mL

CC1=C(c2ccccc2)S(=O)(=O)N=C1NCCCN1CCOCC1 [Compound 13a]
H37Rv MICKAN [1, 8]: 0.625 µg/mL

CCC(=O)CN1C(=O)C2(OCCO2)c2ccccc21 [Compound 2l]
H37Rv MICKAN [1, 9]: ≤1.25 µg/mL | IC50 ([3]; read-out: IC50): > 200000 nM

O=C(C[N+]1=C(c2ccc(F)c(F)c2)c2cccn2CC1)c1cccc(Cl)c1 [Compound 3d]
IC50 ([3]; read-out: IC50): 43 ± 6 nM

COc1ccc(N(C)S(=O)(=O)c2ccc3[nH]c(=O)c(=O)[nH]c3c2)cc1 [Compound 14]
Eis inhibition in the HTS (in words) [4]: inactive

CCN1CCN(CCNC2=NS(=O)(=O)C(c3ccc(F)cc3)=C2C)CC1 [Compound 37b]
H37Rv MICKAN [1, 8]: 0.625 µg/mL

CC1=C(c2ccc(C)c(C)c2)S(=O)(=O)N=C1NCCCN1CCOCC1 [Compound 13i]
H37Rv MICKAN [1, 8]: 0.625 µg/mL

CC1=C(c2ccc(C)cc2)S(=O)(=O)N=C1NCCCN1CCOCC1 [Compound 13e]
H37Rv MICKAN [1, 8]: 0.625 µg/mL

CN(c1ccc(Br)cc1)S(=O)(=O)c1ccc2[nH]c(=O)c(=O)[nH]c2c1 [Compound 29]
Eis inhibition in the HTS (in words) ([4]; single-point HTS of library compounds): potently inhibited Eis activity

CC1=C(c2cccc(Cl)c2)S(=O)(=O)N=C1NCCN1CCOCC1 [Compound 35g]
H37Rv MICKAN [1, 8]: 0.625 µg/mL

CC1=C(c2cccc(Cl)c2)S(=O)(=O)N=C1NCCCN1CCOCC1 [Compound 13g]
H37Rv MICKAN [1, 8]: 0.625 µg/mL

CN(c1ccc2ccccc2c1)S(=O)(=O)c1ccc2[nH]c(=O)c(=O)[nH]c2c1 [Compound 46]
inhibition of KAN acetylation by AAC(2′)-Ic (in words) [5, 10]: did not inhibit KAN acetylation | inhibition of KAN acetylation by AAC(6′)-Ie/APH(2″)-Ia (in words) [6, 10]: did not inhibit KAN acetylation | inhibition of KAN acetylation by AAC(3)-IV (in words) [7]: did not inhibit KAN acetylation

CC1=C(c2ccc(C)c(C)c2)S(=O)(=O)N=C1NCC(=O)NCc1ccc(C)o1 [Compound 116i]
H37Rv MICKAN [1, 8]: 1.25 µg/mL

CC1=C(c2ccc(F)cc2)S(=O)(=O)N=C1NCCCN1CCCCC1C (centres unmarked) [Compound 7b]
H37Rv MICKAN [1, 8]: 0.625 µg/mL

O=C(CN1C(=O)C2(OCCO2)c2ccccc21)c1cccc([N+](=O)[O-])c1 [Compound 2n]
IC50 ([3]; read-out: IC50): 1200 ± 400 nM

CC1=C(c2ccc(C)c(C)c2)S(=O)(=O)N=C1NCCCN1CCN(C2CCCCC2)CC1 [Compound 17i]
H37Rv MICKAN [1, 8]: 0.625 to 1.25 µg/mL

Cc1ccc(N(C)S(=O)(=O)c2ccc3[nH]c(=O)c(=O)[nH]c3c2)cc1 [Compound 15]
Eis inhibition in the HTS (in words) [4]: inactive

Cc1ccc(C(=O)C[N+]2=C(c3ccc(F)c(F)c3)c3cccn3CC2)cc1 [Compound 3k]
IC50 ([3]; read-out: IC50): 110 ± 30 nM

CN1C(=O)C2(OCCO2)c2ccccc21 [Compound 8b]
Eis inhibition in the HTS (in words) [4]: no Eis_Mtb inhibitory activity

Cc1cc(NS(=O)(=O)c2ccc3[nH]c(=O)c(=O)[nH]c3c2)ccc1Br [Compound 1]
Eis inhibition in the HTS (in words) [4]: modest Eis inhibition; also recorded: did not display significant Eis inhibition

CCCN1CCN(C2=NS(=O)(=O)C(c3ccc(C)c(C)c3)=C2C)CC1 [Compound 62i]
H37Rv MICKAN [1, 8]: 0.625 µg/mL

CC1=C(c2ccc(F)cc2)S(=O)(=O)N=C1N1CCC(N2CCCCC2)CC1 [Compound 46b]
H37Rv MICKAN [1, 8]: 0.625 to 1.25 µg/mL | inhibition of KAN acetylation by AAC(2′)-Ic (in words) [5]: no inhibition by either compound was observed | % activity ([5]; 200 µM): 100% | % activity ([6]; acetylation activity of AAC(6′)-Ie/APH(2″)-Ia at 200 μM inhibitor relative to that without inhibitor): 80% | inhibition of KAN acetylation by AAC(6′)-Ie/APH(2″)-Ia (in words) [6, 10]: no inhibition by either compound was observed | % activity ([7]; AAC(3)-IV activity at 200 μM inhibitor relative to that without inhibitor): 100% | inhibition of KAN acetylation by AAC(3)-IV (in words) [7]: no inhibition by either compound was observed | IC50 ([3]; read-out: IC50): 92 ± 21 nM

O=C(C[N+]1=C(c2ccc(F)c(F)c2)c2cccn2CC1)c1ccc(F)cc1 [Compound 3h]
IC50 ([3]; read-out: IC50): 110 ± 30 nM

CC1=C(c2ccc(Cl)cc2)S(=O)(=O)N=C1NCCCN1CCN(C)CC1 [Compound 14c]
H37Rv MICKAN [1, 8]: 0.625 µg/mL

COc1cccc(N(C)S(=O)(=O)c2ccc3[nH]c(=O)c(=O)[nH]c3c2)c1 [Compound 39]
inhibition at 200 µM ([5]; read-out: inhibition of the AAC(2′)-Ic activity): 15% | inhibition of KAN acetylation by AAC(6′)-Ie/APH(2″)-Ia (in words) [6]: did not inhibit KAN acetylation | inhibition of KAN acetylation by AAC(3)-IV (in words) [7]: did not inhibit KAN acetylation

CCN1CCN(CCNC2=NS(=O)(=O)C(c3ccc(OC)cc3)=C2C)CC1 [Compound 37d]
H37Rv MICKAN [1, 8]: 0.625 to 1.25 µg/mL

CCN1CCN(CCCNC2=NS(=O)(=O)C(c3ccc(C(C)C)cc3)=C2C)CC1 [Compound 15f]
H37Rv MICKAN [1, 8]: 0.625 to 1.25 µg/mL

CC1=C(c2ccc(F)cc2)S(=O)(=O)N=C1NCc1ccccn1 [Compound 112b]
H37Rv MICKAN [1, 8]: 0.625 µg/mL

CC1=C(c2ccc(Cl)cc2)S(=O)(=O)N=C1NCCCN1CCc2ccccc2C1 [Compound 11c]
H37Rv MICKAN [1, 8]: 0.625 µg/mL
